Active and inactive are the calls of the source. The calls are words filed in the database; no cut-off is given here.
Legend:
[1] = Cytotoxicity against human A549/DDP cells assessed as inhibition of cell proliferation measured after 48 hrs by MTT assay; type: functional, cell-based
[2] = tested on: HepG2; assay: Induction of apoptosis in human HepG2 cells assessed as late apoptotic cells at 50 nM measured after 48 hrs by Annexin V-FITC/PI double staining based flow cytometry analysis (Rvb= 2.89%); type: functional
[3] = tested on: HepG2; assay: Induction of mitochondrial membrane potential loss in human HepG2 cells assessed as proportion of cells with hyperpolarized mitochondria at 75 nM measured after 48 hrs by JC-1 staining based flow cytometry analysis (Rvb= 80.9%); type: functional
[4] = Toxicity in zebrafish AB assessed as mortality at 0.05 to 2 uM measured at 72 hrs postfertilization; design: species or system Danio rerio; conditions: in vivo, dose 0.05-2 µM
[5] = tested on: HepG2; assay: Induction of apoptosis in human HepG2 cells assessed as necrotic cells at 100 nM measured after 48 hrs by Annexin V-FITC/PI double staining based flow cytometry analysis (Rvb= 0.13%); type: functional
[6] = Drug uptake in mitochondria of human HepG2 cells at 10 uM incubated for 7 hrs by RP-HPLC method relative to TP; type: ADME; conditions: hepg2, 7 h
[7] = tested on: PANC-1; assay: Cytotoxicity against human PANC-1 cells assessed as inhibition of cell proliferation measured after 48 hrs by MTT assay; type: functional, cell-based; conditions: PANC-1, 48 h
[8] = tested on: HepG2; assay: Cytotoxicity against human HepG2 cells assessed as increase in release of LDH measured after 48 hrs by LDH assay; type: functional, cell-based; conditions: dose 100-200 nM
[9] = tested on: HepG2; assay: Induction of mitochondrial membrane potential loss in human HepG2 cells assessed as proportion of cells with depolarized mitochondria at 200 nM measured after 48 hrs by JC-1 staining based flow cytometry analysis (Rvb= 9.1%); type: functional
[10] = tested on: PC-3; assay: Cytotoxicity against human PC-3 cells assessed as inhibition of cell proliferation measured after 48 hrs by MTT assay; type: functional, cell-based; conditions: PC-3, 48 h
[11] = tested on: HepG2; assay: Induction of mitochondrial membrane potential loss in human HepG2 cells assessed as proportion of cells with hyperpolarized mitochondria at 50 nM measured after 48 hrs by JC-1 staining based flow cytometry analysis (Rvb= 80.9%); type: functional
[12] = tested on: L02; assay: Cytotoxicity against human HL7702 cells assessed as inhibition of cell proliferation measured after 48 hrs by MTT assay; type: cell-based; conditions: L02, 48 h
[13] = tested on: HepG2; assay: Induction of mitochondrial membrane potential loss in human HepG2 cells assessed as proportion of cells with depolarized mitochondria at 50 nM measured after 48 hrs by JC-1 staining based flow cytometry analysis (Rvb= 9.1%); type: functional
[14] = Toxicity in zebrafish AB assessed as hatching rate at <12 uM measured at 72 hrs postfertilization; design: species or system Danio rerio; conditions: in vivo
[15] = tested on: HepG2; assay: Induction of apoptosis in human HepG2 cells assessed as early apoptotic cells at 100 nM measured after 48 hrs by Annexin V-FITC/PI double staining based flow cytometry analysis (Rvb= 2.16%); type: functional
[16] = tested on: HeLa; assay: Cytotoxicity against human HeLa cells assessed as inhibition of cell proliferation measured after 48 hrs by MTT assay; type: functional, cell-based
[17] = tested on: HepG2; assay: Induction of apoptosis in human HepG2 cells assessed as late apoptotic cells at 150 nM measured after 48 hrs by Annexin V-FITC/PI double staining based flow cytometry analysis (Rvb= 2.89%); type: functional
[18] = Toxicity in zebrafish AB assessed as mortality at <12 uM measured at 72 hrs postfertilization; design: species or system Danio rerio; conditions: in vivo
[19] = tested on: HepG2; assay: Induction of apoptosis in human HepG2 cells assessed as late apoptotic cells at 100 nM measured after 48 hrs by Annexin V-FITC/PI double staining based flow cytometry analysis (Rvb= 2.89%); type: functional
[20] = tested on: HepG2; assay: Induction of apoptosis in human HepG2 cells assessed as live cells at 100 nM measured after 48 hrs by Annexin V-FITC/PI double staining based flow cytometry analysis (Rvb= 94.8%); type: functional
[21] = tested on: HepG2; assay: Induction of apoptosis in human HepG2 cells assessed as necrotic cells at 150 nM measured after 48 hrs by Annexin V-FITC/PI double staining based flow cytometry analysis (Rvb= 0.13%); type: functional
[22] = tested on: HepG2; assay: Induction of ROS generation in human HepG2 cells assessed as increase in ROS level at 50 to 150 nM measured after 48 hrs by DCFH-DA staining based flow cytometry analysis; type: functional, cell-based; conditions: dose 50-150 nM
[23] = Toxicity in zebrafish AB assessed as increase in embryo malformation rate at 0.05 to 2 uM measured at 72 hrs postfertilization; design: species or system Danio rerio; conditions: in vivo, dose 0.05-2 µM
[24] = Toxicity in zebrafish AB assessed as body length at 0.05 to 2 uM measured at 72 hrs postfertilization; design: species or system Danio rerio; conditions: in vivo, dose 0.05-2 µM
[25] = tested on: HepG2; assay: Induction of apoptosis in human HepG2 cells assessed as early apoptotic cells at 150 nM measured after 48 hrs by Annexin V-FITC/PI double staining based flow cytometry analysis (Rvb= 2.16%); type: functional
[26] = Cytotoxicity against human HBE cells assessed as inhibition of cell proliferation measured after 48 hrs by MTT assay; type: cell-based
[27] = tested on: HepG2; assay: Induction of apoptosis in human HepG2 cells assessed as early apoptotic cells at 50 nM measured after 48 hrs by Annexin V-FITC/PI double staining based flow cytometry analysis (Rvb= 2.16%); type: functional
[28] = tested on: HepG2; assay: Induction of apoptosis in human HepG2 cells assessed as induction of morphological changes by measuring nuclear shrinkage and cleavage at 25 to 100 nM measured after 48 hrs by DAPI staining based inverted fluorescence microscope analysis; type: functional, cell-based; conditions: dose 25-100 nM
[29] = tested on: HepG2; assay: Induction of mitochondrial membrane potential loss in human HepG2 cells assessed as proportion of cells with hyperpolarized mitochondria at 100 nM measured after 48 hrs by JC-1 staining based flow cytometry analysis (Rvb= 80.9%); type: functional
[30] = tested on: HepG2; assay: Induction of apoptosis in human HepG2 cells assessed as live cells at 50 nM measured after 48 hrs by Annexin V-FITC/PI double staining based flow cytometry analysis (Rvb= 94.8%); type: functional
[31] = tested on: HepG2; assay: Induction of mitochondrial membrane potential loss in human HepG2 cells assessed as proportion of cells with depolarized mitochondria at 100 nM measured after 48 hrs by JC-1 staining based flow cytometry analysis (Rvb= 9.1%); type: functional
[32] = tested on: HepG2; assay: Induction of apoptosis in human HepG2 cells assessed as live cells at 75 nM measured after 48 hrs by Annexin V-FITC/PI double staining based flow cytometry analysis (Rvb= 94.8%); type: functional
[33] = tested on: HepG2; assay: Antitumor activity against human HepG2 cells xenografted in zebra fish AB assessed as tumor growth inhibition at 0.5 to 1 uM measured after 48 hrs by fluorescence microscopic analysis; type: functional, cell-based; conditions: dose 0.5-1 µM
[34] = tested on: HepG2; assay: Cytotoxicity against human HepG2 cells assessed as inhibition of cell proliferation measured after 48 hrs by MTT assay; type: functional, cell-based; conditions: HepG2, 48 h
[35] = tested on: MCF7; assay: Cytotoxicity against human MCF7 cells assessed as inhibition of cell proliferation measured after 48 hrs by MTT assay; type: functional, cell-based; conditions: MCF7, 48 h
[36] = tested on: HepG2; assay: Induction of apoptosis in human HepG2 cells assessed as early apoptotic cells at 75 nM measured after 48 hrs by Annexin V-FITC/PI double staining based flow cytometry analysis (Rvb= 2.16%); type: functional

Structure (SMILES): CC(C)[C@]12O[C@H]1[C@@H]1O[C@]13[C@]1(O[C@H]1C[C@H]1C4=C(CC[C@@]13C)C(=O)OC4)[C@@H]2OC(=O)CCCCC[P+](c1ccccc1)(c1ccccc1)c1ccccc1.[Br-]
- IC50 [1]: > 10 µM
- Activity [2]: 1.23%
- Activity [3]: 64.4%
- Activity [4]: Non-Toxic
- Activity [5]: 0.18%
- fold change (FC) [6]: 3
- IC50 [7]: 0.349 µM
- Activity [8]: Dose-Dependent Effect
- Activity [9]: 55.7%
- IC50 [10]: 0.186 µM
- Activity [11]: 74.7%
- IC50 [12]: 0.334 µM
- Activity [13]: 25.3%
- Activity [14]: Non-Toxic
- Activity [15]: 27.8%
- IC50 [16]: 0.325 µM
- Activity [17]: 16.6%
- Activity [18]: Non-Toxic
- Activity [19]: 12.1%
- Activity [20]: 59.9%
- Activity [21]: 0.1%
- Activity [22]: Active
- Activity [23]: Non-Toxic
- Activity [24]: Non-Toxic
- Activity [25]: 33.7%
- IC50 [26]: 0.21 µM
- Activity [27]: 3.89%
- Activity [28]: Active
- Activity [29]: 54.4%
- Activity [30]: 91.2%
- Activity [31]: 45.6%
- Activity [32]: 76.8%
- Activity [33]: Active
- IC50 [34]: 0.067 µM
- IC50 [35]: 0.238 µM
- Activity [36]: 15.5%

Source: ChEMBL document CHEMBL4840355, “Antitumor and toxicity study of mitochondria-targeted triptolide derivatives using triphenylphosphine (TPP+) as a carrier” (Bioorg Med Chem, 2021)
